Measured values as given in patent publication US20030013099A1, “Genes regulated by DNA methylation in colon tumors” (priority 2001, published 2003).

System: HT29 cells
Assay: microarray differential expression, HT29 cells treated with 500 nM Aza
Type: cell-based, human
Details: vs untreated, log base 2, negative = upregulation
Experimental: HT29 cells were derived from a Grade II adenocarcinoma of the colon obtained from a person. HCT116 cells are a subpopulation of malignant cells isolated from a primary cell culture of a single human colonic carcinoma (Brattain et al. (1981) Cancer Res 41:1751-6). HMEC cells are a primary human epithelial cell line derived from the breast tissue of a normal donor. HT29 and HCT116 colorectal carcinoma cells (American Type Culture Collection, Manassas Va.) were cultured in McCoy's medium supplemented with 10% fetal bovine serum (Invitrogen) at 37° C. and 5% CO2. Treated cells were exposed to 500 nM 5-aza-2-deoxycytidine (Aza; Sigma-Aldrich) 24 hours after passage in complete culture medium. Control cultures were treated in parallel with phosphate buffered saline vehicle. After twenty-four hours, culture medium was replaced with drug-free medium. Control and Aza-treated cells were subcultured at equal densities at 1 and 5 days after the initial treatment, and proliferation was measured at the subsequent time point using a Coulter counter (Beckman Coulter, Fullerton Calif.). Cells were harvested 5 days after the initial treatment.
Cells were harvested and lysed in 1 ml of TRIZOL reagent (5×10^6 cells/ml; Invitrogen). The lysates were vortexed thoroughly and incubated at room temperature for 2-3 minutes and extracted with 0.5 ml chloroform. The extract was mixed, incubated at room temperature for 5 minutes, and centrifuged at 16,000× g for 15 minutes at 4° C. The aqueous layer was collected, and an equal volume of isopropanol was added. Samples were mixed, incubated at room temperature for 10 minutes, and centrifuged at 16,000× g for 20 minutes at 4° C. The supernatant was removed, and the RNA pellet was washed with 1 ml of 70% ethanol, centrifuged at 16,000× g at 4° C., and resuspended in RNAse-free water. The concentration of the RNA was determined by measuring the optical density at 260 nm.
Poly(A) RNA was prepared using an OLIGOTEX mRNA kit (Qiagen) with the following modifications: OLIGOTEX beads were washed in tubes instead of on spin columns, resuspended in elution buffer, and then loaded onto spin columns to recover mRNA. To obtain maximum yield, the mRNA was eluted twice.
Each poly(A) RNA sample was reverse transcribed using MMLV reverse-transcriptase, 0.05 pg/μl oligo-d(T) primer (21mer), 1× first strand buffer, 0.03 units/ul RNAse inhibitor, 500 uM dAT?, 500 uM dGTP, 500 uM dTTP, 40 uM dCTP, and 40 uM either dCTP-Cy3 or dCTP-Cy5 (APB). The reverse transcription reaction was performed in a […] volume containing 200 ng poly(A) RNA using the GEMBRIGHT kit (Incyte Genomics). Specific control poly(A) RNAs (YCFRO6, YCFR45, YCFR67, YCFR85, YCFR43, YCFR22, YCFR23, YCFR25, YCFR44, YCFR26) were synthesized by in vitro transcription from non-coding yeast genomic DNA (W. Lei, unpublished). As quantitative controls, control mRNAs (YCFRO6, YCFR45, YCFR67, and YCFR85) at 0.002 ng, 0.02 ng, 0.2 ng, and 2 ng were diluted into reverse transcription reaction at ratios of 1:100,000, 1:10,000, 1:1000, 1:100 (w/w) to sample mRNA, respectively. To sample differential expression patterns, control mRNAs (YCFR43, YCFR22, YCFR23, YCFR25, YCFR44, YCFR26) were diluted into reverse transcription reaction at ratios of 1:3, 3:1, 1:10, 10:1, 1:25, 25:1 (w/w) to sample mRNA. Reactions were incubated at 37° C. for 2 hours, treated with […] of 0.5M sodium hydroxide, and incubated for 20 minutes at 85° C. to the stop the reaction and degrade the RNA.
cDNAs were purified using two successive CHROMA SPIN 30 gel filtration spin columns (Clontech). Cy3- and Cy5-labeled reaction samples were combined as described below and ethanol precipitated using […] of 100% ethanol. The cDNAs were then dried to completion using a SpeedVAC system (Savant Instruments, Holbrook N.Y.) and resuspended in 14 μl 5× SSC, 0.2% SDS. […]

Nc1ncn([C@H]2C[C@H](O)[C@@H](CO)O2)c(=O)n1 [Aza, 5-aza-2-deoxycytidine]
differential expression, Clone ID 2416222, HT29 t/ Aza (5d) (SEQ ID NO:1 hypothetical protein): −1.74 | differential expression, Clone ID 4103545, HT29 t/ Aza (5d) (SEQ ID NO:2 Incyte Unique): −1.89 | differential expression, Clone ID 322569, HT29 t/ Aza (5d) (SEQ ID NO:3 interferon-inducible protein): −4.17 | differential expression, Clone ID 5322134, HT29 t/ Aza (5d) (SEQ ID NO:5 chromosome 6p21.3, HLA Class I region): −2.12 | differential expression, Clone ID 1698458, HT29 t/ Aza (5d) (SEQ ID NO:6 unnamed protein product): −1.79 | differential expression, Clone ID 1871523, HT29 t/ Aza (5d) (SEQ ID NO:7 KIAA1046 protein): −1.07 | differential expression, Clone ID 6024084, HT29 t/ Aza (5d) (SEQ ID NO:8 putative tumor antigen): −2.79 | differential expression, Clone ID 3810006, HT29 t/ Aza (5d) (SEQ ID NO:9 Incyte Unique): −0.92 | differential expression, Clone ID 4508879, HT29 t/ Aza (5d) (SEQ ID NO:10 Incyte Unique): −0.85 | differential expression, Clone ID 4225379, HT29 t/ Aza (5d) (SEQ ID NO:11 U 6 RNA): −0.85 | differential expression, Clone ID 3463713, HT29 t/ Aza (5d) (SEQ ID NO:12 cDNA clone ZD16H10): −1.87 | differential expression, Clone ID 2998017, HT29 t/ Aza (5d) (SEQ ID NO:13, 14 T-cell receptor gamma): −1.14 | differential expression, Clone ID 4318273, HT29 t/ Aza (5d) (SEQ ID NO:15 pTR5 repetitive sequence): −1.58 | differential expression, Clone ID 1649414, HT29 t/ Aza (5d) (SEQ ID NO:16 Hep27 protein): −1.20 | differential expression, Clone ID 1684742, HT29 t/ Aza (5d) (SEQ ID NO:18 cDNA FLJ20222): −0.85 | differential expression, Clone ID 2825816, HT29 t/ Aza (5d) (SEQ ID NO:19 KIAA0412): −1.84 | differential expression, Clone ID 2440943, HT29 t/ Aza (5d) (SEQ ID NO:21 Incyte Unique): −1.07 | differential expression, Clone ID 1294339, HT29 t/ Aza (5d) (SEQ ID NO:22 PDGF-B): −0.93 | differential expression, Clone ID 5104741, HT29 t/ Aza (5d) (SEQ ID NO:23 cDNA FLJ10570): −0.93 | differential expression, Clone ID 1855389, HT29 t/ Aza (5d) (SEQ ID NO:24 pTR7 repetitive sequence): −2.09 | differential expression, Clone ID 5207613, HT29 t/ Aza (5d) (SEQ ID NO:25 chromosome 21 segment HS21C049): −2.10 | differential expression, Clone ID 3207902, HT29 t/ Aza (5d) (SEQ ID NO:26 hypothetical protein): −1.29 | differential expression, Clone ID 4999769, HT29 t/ Aza (5d) (SEQ ID NO:27 ZNFpT17): −1.26 | differential expression, Clone ID 408886, HT29 t/ Aza (5d) (SEQ ID NO:28 transketolase): −1.31 | differential expression, Clone ID 4764233, HT29 t/ Aza (5d) (SEQ ID NO:30 GAGE-8): −2.00 | differential expression, Clone ID 2511379, HT29 t/ Aza (5d) (SEQ ID NO:31 GAGE-7B): −1.98 | differential expression, Clone ID 2471817, HT29 t/ Aza (5d) (SEQ ID NO:33 cDNA clone YU62C03): −1.20 | differential expression, Clone ID 3333736, HT29 t/ Aza (5d) (SEQ ID NO:34 MAGE-11 antigen): −1.38 | differential expression, Clone ID 1304365, HT29 t/ Aza (5d) (SEQ ID NO:35 GAGE-8): −2.48 | differential expression, Clone ID 2657056, HT29 t/ Aza (5d) (SEQ ID NO:37, 38 MAGE-4b antigen): −1.93 | differential expression, Clone ID 2507719, HT29 t/ Aza (5d) (SEQ ID NO:39 MAGE-9 antigen): −2.32 | differential expression, Clone ID 4688, HT29 t/ Aza (5d) (SEQ ID NO:41 MAGE-1): −2.03 | differential expression, Clone ID 2068708, HT29 t/ Aza (5d) (SEQ ID NO:42 HM74): −1.17 | differential expression, Clone ID 23770, HT29 t/ Aza (5d) (SEQ ID NO:43 1-8D): −2.99 | differential expression, Clone ID 1616783, HT29 t/ Aza (5d) (SEQ ID NO:45 Incyte Unique): −0.84 | differential expression, Clone ID 820942, HT29 t/ Aza (5d) (SEQ ID NO:46 cDNA FLJ20120): −0.58 | differential expression, Clone ID 891322, HT29 t/ Aza (5d) (SEQ ID NO:47 Incyte Unique): 0.00 | differential expression, Clone ID 2755836, HT29 t/ Aza (5d) (SEQ ID NO:48 U5 A RNA): −0.68 | differential expression, Clone ID 1227521, HT29 t/ Aza (5d) (SEQ ID NO:49 phospholipid scramblase 1): −2.10 | differential expression, Clone ID 2200842, HT29 t/ Aza (5d) (SEQ ID NO:50 retinoid inducible gene 1): −1.74 | differential expression, Clone ID 2238363, HT29 t/ Aza (5d) (SEQ ID NO:51 interferon induced): −1.85 | differential expression, Clone ID 1495382, HT29 t/ Aza (5d) (SEQ ID NO:53 TRAIL): −1.07 | differential expression, Clone ID 1998269, HT29 t/ Aza (5d) (SEQ ID NO:55 rhoB): −0.92 | differential expression, Clone ID 1919287, HT29 t/ Aza (5d) (SEQ ID NO:56 hepatitis C-associated microtubular aggregate): −3.12 | differential expression, Clone ID 2637446, HT29 t/ Aza (5d) (SEQ ID NO:57 HE4 protein): −1.07 | differential expression, Clone ID 1962141, HT29 t/ Aza (5d) (SEQ ID NO:58 Similar to keratin 7): −0.43 | differential expression, Clone ID 4933404, HT29 t/ Aza (5d) (SEQ ID NO:60 Incyte Unique): −0.32 | differential expression, Clone ID 2150288, HT29 t/ Aza (5d) (SEQ ID NO:61 Keratin 8): −0.07 | differential expression, Clone ID 2697455, HT29 t/ Aza (5d) (SEQ ID NO:61 Keratin 8): −0.32
